Test results as given in patent US20260335279A1, “METHODS OF TREATING ISCHEMIA-REPERFUSION INJURIES” (University of Cincinnati, priority 2022, published 2026).

What was measured:
[1] = test system: myocardial ischemia-reperfusion injury in mice; assay: 2D echocardiography (cardiac function) in murine myocardial ischemia-reperfusion injury; type: in vivo, mouse (C57BL/6); settings: 30 min ischemia
Description: Cardiac function was assessed by transthoracic echocardiography using the VisualSonics Vevo F2 system (VisualSonics, Toronto, ON). Sedation was induced by 3% isoflurane and maintained at 0.5% isoflurane during the procedure, during which the animals were placed on a heated table under a lamp at approximately 37 °C. Parasternal long axis (PSLAX) and short axis (SAX) images were recorded and then analyzed on a separate workstation with VevoLab software (Vevo 2100, v1.6, Visualsonic, Toronto, Canada). From the M-mode images, left ventricular cavity size for systole and diastole (LV dia;s, LV dia;d, LV Vol;s and LV Vol;d) were measured. Heart rate (HR), stroke volume (SV), and the echocardiographic calculation for fractional shortening (FS), ejection fraction (EF) and cardiac output (CO) were obtained using the Vevo software. Treatment and control groups were analyzed on the same day by the same technician in order to minimize variation. For VevoStrain analysis, B-mode images of 300 frames at greater than 200 frames/second were used.
The myocardial ischemia/reperfusion surgical protocol was applied as follows. Mice were anesthetized with 2% isoflurane inhalation until anesthesia was achieved. […] The mouse was then monitored during the recovery period, which was generally completed within 3 to 5 minutes. […]

[2] = test system: reactive oxygen species in myocardium; assay: DHE staining of myocardium (superoxide detection, oxidative stress) after I/R; type: in vivo, mouse (C57BL/6); settings: 30 min ischemia, 2 h reperfusion; ML264 5 min prior to reopening of coronary artery; vs I/R vehicle
Description: The myocardial ischemia/reperfusion surgical protocol was applied as follows. Mice were anesthetized with 2% isoflurane inhalation until anesthesia was achieved. The animals' body temperature was maintained at 37 °C throughout the surgical procedure using a heating pad. A tracheal tube was placed via tracheal intubation and the respiration rate was set at 150 strokes/min with a tidal volume of 200 μL, using Minivent ventilator for mice (Model 845, Harvard Apparatus). A 1.2 cm incision was made over the left chest. After retraction of the pectoral major and minor muscles, the fourth intercostal space was exposed. […] The left anterior descending coronary artery (LAD) was then located, sutured, and ligated at a site 3-4 mm distal to the origin of the artery under the left atrium using a 6-0 silk suture. The heart was allowed to stabilize for 15 min and right after, ischemia was induced by tightening the suture against a small piece of polyethylene tube. At the end of the 30-minute ischemia period, the ligature was released for the induction of reperfusion, and then the manual evacuation of air and closure of muscle and skin were performed. The mouse was then monitored during the recovery period, which was generally completed within 3 to 5 minutes. […]
Live myocardium was isolated from mice at the time of euthanasia and stained with 20 μM dihydroethidium (DHE) for 30 min at room temperature. […] Individual nuclei were measured within each visual field using ImageJ software, and visual fields were averaged to measure mean fluorescence intensity for each mouse.
In order to unravel the mechanisms of KLF5-mediated cardiotoxicity, oxidative stress levels were evaluated at early reperfusion. […] Given the fact that inflammation and diapedesis of immune cells are important hallmarks of the post-ischemia-reperfusion response, the mRNA levels of IL-1α, IL-1β, IL-6, IL-10, and TNFα in the ischemic myocardium upon ML264 treatment were evaluated at 2 hours of reperfusion (FIGS. 51-5M) and 24 hours of reperfusion (FIGS. 5N-5Q). […]

[3] = test system: NOX4; assay: NOX4 mRNA in myocardium after I/R (real-time PCR); type: in vivo, mouse (C57BL/6); settings: ML264 treatment; 30 min ischemia, 2 h reperfusion
Description: (§1) The myocardial ischemia/reperfusion surgical protocol was applied as follows. Mice were anesthetized with 2% isoflurane inhalation until anesthesia was achieved. The animals' body temperature was maintained at 37 °C throughout the surgical procedure using a heating pad. A tracheal tube was placed via tracheal intubation and the respiration rate was set at 150 strokes/min with a tidal volume of 200 μL, using Minivent ventilator for mice (Model 845, Harvard Apparatus). A 1.2 cm incision was made over the left chest. After retraction of the pectoral major and minor muscles, the fourth intercostal space was exposed. […] The mouse was then monitored during the recovery period, which was generally completed within 3 to 5 minutes. […]
(§2) Total RNA was purified from heart tissue using the TRIzol reagent according to the instructions of the manufacturer (ThermoFischer Scientific, Cat. No.: 15596018). cDNA synthesis was performed using the Applied Biosystems High Capacity cDNA Reverse Transcription Kit (ThermoFischer Scientific, Cat. No.: 4368814) from 500 ng RNA, which had been treated with DNAase I (ThermoFischer Scientific, Cat. No.: 18068015). Quantitative real-time PCR was performed with the SYBR Select Master Mix (ThermoFischer Scientific, Cat. No.: 4472903) using the manufacturer's recommendations. […]

[4] = test system: NOX4; assay: NOX4 protein in myocardium after I/R (Western blot); type: in vivo, mouse (C57BL/6); settings: ML264 treatment, 30 min ischemia, 2 h reperfusion
Description: The myocardial ischemia/reperfusion surgical protocol was applied as follows. Mice were anesthetized with 2% isoflurane inhalation until anesthesia was achieved. The animals' body temperature was maintained at 37 °C throughout the surgical procedure using a heating pad. A tracheal tube was placed via tracheal intubation and the respiration rate was set at 150 strokes/min with a tidal volume of 200 μL, using Minivent ventilator for mice (Model 845, Harvard Apparatus). A 1.2 cm incision was made over the left chest. After retraction of the pectoral major and minor muscles, the fourth intercostal space was exposed. […] The left anterior descending coronary artery (LAD) was then located, sutured, and ligated at a site 3-4 mm distal to the origin of the artery under the left atrium using a 6-0 silk suture. […] The mouse was then monitored during the recovery period, which was generally completed within 3 to 5 minutes. […]
Isolated myocardial tissue/isolated primary murine cardiomyocytes were homogenized in radioimmunoprecipitation assay buffer (RIPA buffer) containing protease and phosphatase inhibitors (Thermo Fischer Scientific, Cat. No.: A32959). […] Relative densitometry was determined, and the β-actin protein was used as a loading control.
In order to unravel the mechanisms of KLF5-mediated cardiotoxicity, oxidative stress levels were evaluated at early reperfusion. […]

[5] = test system: Ugdh; assay: Ugdh levels after I/R; type: in vivo, mouse; settings: among the three groups, ML-264 treatment
Description: as §1, §2

Structure (SMILES): CN(C(=O)CNC(=O)/C=C/c1cccc(Cl)c1)C1CCS(=O)(=O)CC1 [ML264]
- ejection fraction (4 weeks) ([1]; 4 weeks reperfusion, two doses of ML264 at early reperfusion, vs IR vehicle): significant preservation
- ejection fraction ([1]; 24 h reperfusion, 25 mg/kg/12 h intraperitoneal, first dose 5 min before reopening of coronary artery, vs vehicle): significant preservation
- reactive oxygen species formation (DHE staining) [2]: significant reduction
- NOX4 mRNA levels [3]: suppressed
- NOX4 protein levels [4]: suppressed
- NOX4 levels ([4]; FIG. 5C-5E (mRNA and protein)): significant suppression
- Ugdh levels [5]: no effect
